# Laboratory results published in patent US6646005B1, “Method of treating hair loss using sulfonyl thyromimetic compounds” (The University of Texas Southwestern Medical Center, priority 1999, dated 2003).
# System: male Sprague Dawley rats
# Assay: Cardiotoxicity Assay (heart-to-body weight ratio)
# Format: in vivo, rat
# Details: 250 μg per kg subcutaneously once daily for 28 days, hearts weighed day 30
# From the text: The cardiotoxicity assay measures the potential of a test compound to adversely affect the cardiovascular system. As thyroid hormone (T3) damages the cardiovascular system, the heart enlarges. See, e.g., Gomberg-Maitland et al., “Thyroid hormone and Cardiovascular Disease”, American Heart Journal, Vol. 135(2), pp. 187-196 (1998); Klein and Ojamaa, “Thyroid Hormone and the Cardiovascular System”, Current Opinion in Endocrinology and Diabetes, Vol. 4, pp.341-346 (1997); and Klemperer et al., “Thyroid Hormone Therapy and Cardiovascular Disease”, Progress in Cardiovascular Diseases, Vol. 37 (4), pp. 329-336 (1996). This increases the weight of the heart relative to whole body weight. The cardiotoxicity assay herein below is used to test compounds for potentially adverse cardiac effects by measuring their effect on the heart-to-body weight ratio.
# Two groups each of six male Sprague Dawley rats (Harlan Sprague Dawley, Inc., Indianapolis, Ind.) (each weighing from approximately 220 grams to 235 grams) are utilized. The first group is a vehicle control group and the second group is a test compound group. The length of the assay is 30 days, with treatment of vehicle or test compound in vehicle daily for 28 of those days as described below.
# Prior to initiation of the assay, each rat is allowed to acclimate to standard environmental conditions for 5 days. […]
smiles,measurement,value
"N[C@@H](Cc1cc(I)c(Oc2cc(I)c(O)c(I)c2)c(I)c1)C(=O)O [T4, thyroxine]","cardiac-sparing (index C = RT/RV, heart/body ratio of test compound group over vehicle control group)",not cardiac-sparing
